The values below come from article PMC4492750, “The discovery of a selective and potent A2a agonist with extended lung retention” (Pharmacology Research & Perspectives, 2015).

Data set [1] relates to blood pressure and heart rate. As to conditions: rat, in vivo. An excerpt: A mixed effect model with fixed effects for time after dose, treatment groups, and number of doses, was set up for the analysis of the blood pressure and HR data (SAS v.9.2). A random intercept was included to allow for individual baseline blood pressures, as well as a random effect on the number of doses. Seven days before initiation of the dosing regimen, 24 rats were anaesthetized (isoflurane) and a small telemetry unit (PA-C10, Data Sciences International, USA) was placed subcutaneously on the left side of the throat with the catheter going into the left carotid artery. […] The compound was given by intratracheal instillation as described above, for 5 consecutive days, and blood pressure and heart rate were continuously recorded, apart from the brief period during compound administration.

Data set [2] can be described thus: Plasma protein binding by equilibrium dialysis. To be noted: male, Wistar, pH 7.4, rat plasma, 10 μmol/L, read-out: fu rat (free unbound drug in plasma). In kind it is in vitro ADME. Here is the method: (§1) • Human A2a and A2b receptor pharmacology: Chinese hamster ovary CHO-K1 cells stably expressing human A2a and A2b receptors were used to determine substances agonistic potency and intrinsic activity. […] The signal corresponding to adenosine at 100 μmol/L was used to define 100% intrinsic activity. • Human A3 receptor pharmacology: A3 receptor Gi coupling was measured by GTPγ ^35[S] filter assay at serial dilutions of compound using membranes from Perkin-Elmer. The signal corresponding to the maximal response of NECA at 100 μmol/L was set to 100% intrinsic activity. • Lipopolysaccharide (LPS)-induced TNFα production in primary human peripheral blood mononuclear cells (hTNFα PBMC) and rat mononuclears (rTNFα splenocytes): Human PBMC and rat mononuclear spleen cells were incubated with serial dilutions of compound and stimulated with LPS.
The plasma protein binding was determined in plasma from male Wistar rats at a compound concentration of 10μM by equilibrium dialysis against a phosphate buffer at pH 7.4 using a semi-permeable membrane with a molecular cut-off of 6-8KDa (Spectra/Por, Spectrum Laboratories Inc, US). The compounds were dialyzed for 18h at 37±1°C in an air incubator on an orbital shaker. The samples were analysed using LC-MS/MS.
On the technique in general: In equilibrium dialysis only unbound substance equilibrates across the membrane.

Data set [3] relates to LPS-induced BAL neutrophils. Kind of data set: LPS-induced lung inflammation model, neutrophils in BAL fluid. In kind it is in vivo, rat. As to conditions: for Reduction of total cells and neutrophilia in BAL fluid: 10 μg/kg i.t. Here is the method:
The efficacy of the compound on neutrophils in BAL fluid is expressed as per cent inhibition of the full window (negative veh/veh controls vs. the positive veh/LPS controls): Inhibition (%) of LPS-induced BAL neutrophils by compound 2 was calculated using the following formula: [drawing 1] where A is the average in the group administered with vehicle and challenged with LPS; B is the average in the group administered with vehicle and challenged with saline; and C is the average in the group administered with test compound and challenged with LPS.
Animals in all efficacy studies were dosed intratracheally as described above in a buffered saline vehicle (pH 5) containing sodium chloride (8.5mg/ml), citric acid (0.28mg/ml) and sodium citrate (0.5mg/ml). The compound was dissolved in saline when given intravenously (0.9% NaCl) to the swivelled rats.
[…] Each rat was given LPS from the Pseudomona Aeruginosa bacteria (1µg/rat, 5µg/ml saline, Sigma-Aldrich, Sweden).
24 hours after the LPS challenge, rats were anaesthetized and exsanguinated via a cardiac incision. A tube was inserted and ligated to the trachea. The tube was connected to a syringe with 4ml PBS (without Ca^2+/Mg^2+) and a lavage of the whole lung was performed manually. The BAL fluid was collected individually in polyethylene tubes and kept on ice until further processed.
The BAL fluid was centrifuged and the supernatant separated from the cell pellet that was resuspended in 1.0ml of PBS. The total number of cells and cell differentia was counted in an automated cell counter and haematology analyzer (SYSMEX XT-1800iV, software for the rat BALF).

The nature of data set [4]: Substance solubility in phosphate buffer. The format is physicochemical. To be noted: aqueous buffer, thermodynamic from solid; phosphate buffer pH 7.4, dry compound in solid state. Here is the method: as §1
Solubility was measured in phosphate buffer at pH 7.4 using dry compounds in solid state.

For data set [5], the target named is T1, A3 (Homo sapiens, UniProt P0DMS8).
T1 sequence (P0DMS8 1-318): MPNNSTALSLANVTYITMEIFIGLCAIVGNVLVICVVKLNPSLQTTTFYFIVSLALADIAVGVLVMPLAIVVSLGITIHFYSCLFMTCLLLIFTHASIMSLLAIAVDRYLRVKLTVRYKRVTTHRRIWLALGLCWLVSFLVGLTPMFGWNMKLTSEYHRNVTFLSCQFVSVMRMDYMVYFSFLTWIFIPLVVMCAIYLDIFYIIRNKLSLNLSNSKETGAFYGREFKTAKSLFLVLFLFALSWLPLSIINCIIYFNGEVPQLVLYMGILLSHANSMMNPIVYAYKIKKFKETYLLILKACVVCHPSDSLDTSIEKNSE
Nature of the data set: Selectivity panel of 98 targets in binding assays (Ricerca): A3. More on the design: Ricerca (contract panel). As to conditions: 10 μmol/L of compound; data on AstraZeneca file. Here is the method: The medicinal chemistry synthetic optimization focused on the position C2 and N6 (Fig.2) with the aim to discover a compound with high A2a potency, high selectivity, low lipophilicity (logD), and high solubility. […] Selectivity of compound 2 was tested across 98 targets in binding assays (www.ricerca.com). The only identified significant hits (i.e., >50% effect at 10 μmol/L of compound 2) were A2a (∼100%) and A3 (∼84%) data on AstraZeneca file.

As to `CCNC(=O)[C@H]1O[C@@H](n2cnc3c(NC(CC)CC)nc(NCCNC(=O)Nc4cc[n+](C)cc4)nc32)[C@H](O)[C@@H]1O` [Compound 2, (2S,3S,4R,5R)-N-ethyl-5-[6-(1-ethylpropylamino)-2-[2-[(1-methylpyridin-1-ium-4-yl)carbamoylamino]ethylamino]purin-9-yl]-3,4-dihydroxy-tetrahydrofuran-2-carboxamide], the “Tachyphylaxis for the HR” value in data set [1] is “did not demonstrate any tachyphylaxis”. In data set [2], the fraction unbound at 18 h, 10 μM is 0.44. The “Inhibition of recovered neutrophils in BAL fluid” value in data set [3] (0.1 μg/kg i.t. single dose 24 h prior to LPS) stood at 9%; in data set [3] (1 μg/kg i.t. single dose 24 h prior to LPS), 17%; in data set [3] (10 μg/kg i.t. for five consecutive days, LPS 24 h after last dose), 53%; in data set [3] (10 μg/kg i.t. for three consecutive days, LPS 24 h after last dose), 39%; in data set [3] (10 μg/kg i.t. single dose 24 h prior to LPS (n.s., P = 0.086)), 39%. The “Reduction of total cells and neutrophilia in BAL fluid” value was “significant reduction” in data set [3] (36 and 24 h pre-treatment before LPS); “not significant” in data set [3] (12 h pretreatment before LPS). For the same compound, the “Maximum inhibition of neutrophil recruitment” value in data set [3] (single i.t. dose of 10 μg/kg, rodents, previous dose-response studies) is on record as 40–50%. For the same compound, in data set [4], the solubility was above 1000 µM. Moreover, the “Effect in binding assay, A3” value in data set [5] was around 84%.

The term solubility denotes the dissolved amount per volume that the medium holds.
